Several values for one entry are separate records, joined by “and”; a condition that tells them apart may be missing. Equal values may be shown once. Entries after “also recorded” stand apart in the source; their conditions may differ.
Assays:
[1] = test system: patients with dry eye and blepharitis; assay: Safety evaluation: best-corrected visual acuity (BCVA); conditions: baseline to study completion
[2] = test system: patients with dry eye and blepharitis; assay: Schirmer I test, topical statin pilot study; assay type: in vivo, human; conditions: baseline to week four
Excerpt: (§1) Aim: To investigate topical statin as a novel therapy for dry eyes associated with blepharitis. Methods: 10 patients with symptoms and signs of dry eye and blepharitis were enrolled in a prospective pilot study of topical statin therapy over 1 month. The primary outcome measure was corneal fluorescein staining. Results: An Improvement in corneal fluorescein staining by a 3 points from baseline to completion of the trial at week four was found in 6 of 10 patients in the study eye. Subjective dry eye symptoms improved (p=0.005). […] Conclusions: Topical statins are a suitable therapy for patients with dry eye and blepharitis. They can be easily manufactured and could be widely available.
(§2) 10 patients were enrolled and completed the study.
(§3) Patients with • 1) Any symptoms of dry eyes and blepharitis • 2) Any signs of dry eyes: • BUT (tear break up time)≤5 sec, or • Punctate epithelial erosions in at least one eye • 3) Any signs of blepharitis: • Anterior lid margin—grease, skin scales, collarets, frank ulcers, loss of lashes and inflammation • Posterior lid margin—cheesy secretions, blocked meibomian glands >⅓, telangiectasia, meibomitis, notched lid margin and chalaza • 4) Male or female patients greater or equal to 18 years of age • 5) Patients able to give written informed consent and comply with study protocol
(§4) Patients were evaluated at weeks 1, 2, 3 and 4. […]

[3] = test system: patients with dry eye and blepharitis; assay: Safety evaluation: intraocular pressure (IOP); conditions: baseline to study completion
[4] = test system: patients with dry eye and blepharitis; assay: Corneal fluorescein staining (National Eye Institute scoring 0-15), topical statin pilot study; assay type: in vivo, human
Excerpt: as §1, §2, §3
(§5) • 1) Subjective • Total symptoms score • Face score (Goto et al 2002) • 2) Objective • a) Tear film break-up time (BUT) • b) Corneal fluorescein staining • b) Blepharitis score • c) Bulbar conjunctival injection • d) Concomitant use of topical therapy
(§6) Patients were evaluated at weeks 1, 2, 3 and 4. However, the primary endpoint was at trial completion (4 weeks). A p value <0.050 was considered statistically significant.

[5] = test system: patients with dry eye and blepharitis; assay: Blepharitis score, topical statin pilot study; assay type: in vivo, human; design: Blepharitis score: scale not given here
Excerpt: as §1, §2
(§7) Patients with • 1) Any symptoms of dry eyes and blepharitis • 2) Any signs of dry eyes: • BUT (tear break up time)≤5 sec, or • Punctate epithelial erosions in at least one eye • 3) Any signs of blepharitis: • Anterior lid margin—grease, skin scales, collarets, frank ulcers, loss of lashes and inflammation • Posterior lid margin—cheesy secretions, blocked meibomian glands >⅓, telangiectasia, meibomitis, notched lid margin and chalaza • 4) Male or female patients greater or equal to 18 years of age • 5) Patients able to give written informed consent and comply with study protocol […]
as §4

[6] = test system: patients with dry eye and blepharitis; assay: Tear film break-up time (BUT), topical statin pilot study; assay type: in vivo, human; conditions: 1 month topical therapy
Excerpt: as §1, §2, §7, §4

[7] = test system: patients with dry eye and blepharitis; assay: Safety evaluation: cataract and adverse reactions; assay type: in vivo, human
Excerpt: as §2

[8] = test system: patients with dry eye and blepharitis; assay: Face score (facial analogue scale, Goto et al 2002), topical statin pilot study; assay type: in vivo, human; design: Facescale score: scale not given here
Excerpt: as §1, §2, §7, §4

[9] = test system: patients with dry eye and blepharitis; assay: Subjective dry eye symptom scores (global and individual), topical statin pilot study; assay type: in vivo, human; design: Global Symptom score: scale not given here
Excerpt: as §1, §2, §3, §5, §6

[10] = test system: patients with dry eye and blepharitis; assay: Concomitant use of topical lubricants, topical statin pilot study; assay type: in vivo, human
Excerpt: as §2, §5
Prior to the study, 6 patients were using topical lubricants an average of 6 times a day (range 2 to 8. SD 2.3); 4 of these patients were using preservative-free lubricants. At study completion, 2 patients had ceased their topical lubrication, and 3 of the remaining 4 patients had reduced the frequency of lubricant use to an average of 4 times a day (range 3 to […]). […] One patient had had punctal occlusion in the study eye. 4 patients were performing lid massage with hot compresses and 4 were using a cotton bud for lid hygiene, 1 with bicarbonate of soda solution and 2 with shampoo. Patients were asked not to change these regimes during the study period.

[11] = 1 month, study eye, individual patients 1-10, listed as topical statin

CC(C)c1c(C(=O)Nc2ccccc2)c(-c2ccccc2)c(-c2ccc(F)cc2)n1CC[C@@H](O)C[C@@H](O)CC(=O)O [Atorvastatin]
Change in BCVA, fellow eye (in words) [1]: no significant change
Change in BCVA, study eye (in words) [1]: no significant change
Change in Schirmer I test result (in words) [2]: no significant change
Change in IOP, study eye (in words) [3]: no change
Corneal fluorescein score ([4]; 1 month, NEI scale 0-15, individual patients 1-10, 50 microM, 8 times a day, listed as topical statin): 1 (2×) and 0 (4×) and 2 (3×) and 4
Patients with improvement in corneal fluorescein staining by three or more points ([4]; of 10 patients, baseline to week four): 6 patients
Patients with corneal fluorescein staining score improved by more than one point ([4]; of the 10 patients): 9 patients
Effect on blepharitis score (in words) ([5]; 1 month topical therapy): significantly improved
Blepharitis score [5, 11]: 7 (2×) and 5 (3×) and 4 (3×) and 2 (2×)
Effect on tear film break-up time (in words) [6]: significantly improved
Adverse events / side-effects ([7]; 1 month topical therapy, both eyes, 10 patients, listed as topical statin): no serious or irreversible side-effects; also recorded: No adverse events were reported
Cataract development ([7]; baseline to study completion): no patient developed cataract
Facescale score ([8]; 1 month, facial analogue scale, individual patients 1-10, listed as topical statin): 4 (3×) and 1 and 3 (2×) and 5 (3×) and 2
Change in face score (in words) ([8]; enrolment to week four): significant improvement
Effect on subjective dry eye symptoms (in words) ([9]; 1 month topical therapy): improved
Global Symptom score [9, 11]: 5 and 0 (5×) and 3 and 4 and 1 and 2
Change in blurred vision score (in words) ([9]; enrolment to week four): no significant change
Change in discomfort score (in words) ([9]; enrolment to week four): significant improvement
Change in dryness score (in words) ([9]; enrolment to week four): significant improvement
Change in foreign body sensation score (in words) ([9]; enrolment to week four): significant improvement
Change in photophobia score (in words) ([9]; enrolment to week four): no significant change
Change in redness score (in words) ([9]; enrolment to week four): significant improvement
Change in watering score (in words) ([9]; enrolment to week four): significant improvement
Patients who had ceased their topical lubrication at study completion ([10]; of 6 patients using topical lubricants prior to the study): 2 patients
Patients who had reduced the frequency of lubricant use ([10]; of the remaining 4 patients, at study completion): 3 patients
Average frequency of lubricant use at study completion ([10]; range 3 to 6, SD 0.6, prior to the study average 6 times a day): 4 times a day

Reference: patent publication US20250205231A1, “Tear Film Stability” (priority 2012, published 2025)
